In ChEMBL document CHEMBL1156794, “Synthesis and antimicrobial evaluation of amphiphilic neamine derivatives” (J Med Chem, 2010):
Values after ≈ are worked out from the molar mass of the structure shown.

How the values were obtained:
Staphylococcus aureus [1] = assay: Antibacterial activity against MsrA pump expressing Staphylococcus aureus after 24 hrs by geometric microdilution method; assay type: functional
Staphylococcus aureus [2] = assay: Antibacterial activity against aminoglycoside-6'-N-acetyltransferase/2''-O-phosphoryltransferase expressing Staphylococcus aureus after 24 hrs by geometric microdilution method; assay type: functional
Staphylococcus aureus [3] = assay: Antibacterial activity against aminoglycoside-3'-O-phosphoryltransferase expressing Staphylococcus aureus after 24 hrs by geometric microdilution method; assay type: functional
Staphylococcus aureus [4] = assay: Antibacterial activity against aminoglycoside-4'-O-phosphoryltransferase expressing Staphylococcus aureus after 24 hrs by geometric microdilution method; assay type: functional
Staphylococcus aureus [5] = assay: Antibacterial activity against methicillin-resistant Staphylococcus aureus ATCC 33592 clinical isolate after 24 hrs by geometric microdilution method; assay type: functional; conditions: ATCC 33592, 24 h
Staphylococcus aureus [6] = assay: Antibacterial activity against vancomycin-resistant Staphylococcus aureus VRS-2 after 24 hrs by geometric microdilution method; assay type: functional; conditions: VRS-2, 24 h
Acinetobacter lwoffii [7] = assay: Antibacterial activity against […] expressing Acinetobacter lwoffii AI.88-483 after 24 hrs by geometric microdilution method; assay type: functional
Pseudomonas aeruginosa [8] = assay: Antibacterial activity against Pseudomonas aeruginosa ATCC 27853 after 24 hrs by geometric microdilution method; assay type: functional
Pseudomonas aeruginosa [9] = assay: Antibacterial activity against AAC6'-2a expressing Pseudomonas aeruginosa F03 after 24 hrs by geometric microdilution method; assay type: functional
Pseudomonas aeruginosa [10] = assay: Antibacterial activity against MexXY expressing Pseudomonas aeruginosa PT629 after 24 hrs by geometric microdilution method; assay type: functional
Klebsiella pneumoniae = assay: Antibacterial activity against Klebsiella pneumoniae ATCC 700603 after 24 hrs by geometric microdilution method; assay type: functional
Escherichia coli [11] = assay: Antibacterial activity against AAC6'-2b expressing Escherichia coli PAZ505H8101 after 24 hrs by geometric microdilution method; assay type: functional
Escherichia coli [12] = assay: Antibacterial activity against ANT2'-2a expressing Escherichia coli L58058.1 after 24 hrs by geometric microdilution method; assay type: functional
Pseudomonas aeruginosa [13] = assay: Antibacterial activity against Pseudomonas aeruginosa PAO1 after 24 hrs by geometric microdilution method; assay type: functional
Pseudomonas aeruginosa [14] = assay: Antibacterial activity against MexCD expressing Pseudomonas aeruginosa PA01 after 24 hrs by geometric microdilution method; assay type: functional
Pseudomonas aeruginosa [15] = assay: Antibacterial activity against MexEF expressing Pseudomonas aeruginosa PA03 after 24 hrs by geometric microdilution method; assay type: functional
Pseudomonas aeruginosa [16] = assay: Antibacterial activity against MexAB expressing Pseudomonas aeruginosa PA21 after 24 hrs by geometric microdilution method; assay type: functional
Pseudomonas aeruginosa [17] = assay: Antibacterial activity against MexXY expressing Pseudomonas aeruginosa PA22 after 24 hrs by geometric microdilution method; assay type: functional
Pseudomonas aeruginosa [18] = assay: Antibacterial activity against TriABC expressing MexAB, MexCD, MexEF, MexXY deleted Pseudomonas aeruginosa PA405 after 24 hrs by geometric microdilution method; assay type: functional
Pseudomonas aeruginosa [19] = assay: Antibacterial activity against MexAB, MexCD, MexEF, MexXY, TriABC deleted Pseudomonas aeruginosa PA406 after 24 hrs by geometric microdilution method; assay type: functional
Staphylococcus aureus [20] = assay: Antibacterial activity against Staphylococcus aureus ATCC 25923 after 24 hrs by geometric microdilution method; assay type: functional; conditions: ATCC 25923, 24 h
Staphylococcus aureus [21] = assay: Antibacterial activity against NorA pump expressing Staphylococcus aureus after 24 hrs by geometric microdilution method; assay type: functional
Acinetobacter lwoffii [22] = assay: microbe, parasite or virus in culture; conditions: ATCC 17925, 24 h
Description: Antibacterial activity against Acinetobacter lwoffii ATCC 17925 after 24 hrs by geometric microdilution method

Escherichia coli [23] = assay: microbe, parasite or virus in culture; conditions: ATCC 25922, 24 h
Description: Antibacterial activity against Escherichia coli ATCC 25922 after 24 hrs by geometric microdilution method

Citrobacter amalonaticus = assay: Antibacterial activity against R-methylase expressing Citrobacter amalonaticus 06AB0010 after 24 hrs by geometric microdilution method; assay type: functional
Escherichia coli [24] = assay: Antibacterial activity against R-methylase expressing Escherichia coli 06AB003 after 24 hrs by geometric microdilution method; assay type: functional
Klebsiella aerogenes = assay: Antibacterial activity against R-methylase expressing Enterobacter aerogenes 06AB008 after 24 hrs by geometric microdilution method; assay type: functional

## NC[C@H]1O[C@H](O[C@H]2[C@H](O)[C@@H](OCc3ccccc3)[C@H](N)C[C@@H]2N)[C@H](N)[C@@H](OCc2ccccc2)[C@@H]1OCc1ccccc1
Staphylococcus aureus [1]
  MIC: > 128 µg/mL
Staphylococcus aureus [2]
  MIC: > 128 µg/mL
Staphylococcus aureus [3]
  MIC: > 128 µg/mL
Staphylococcus aureus [4]
  MIC: > 128 µg/mL
Staphylococcus aureus [5]
  MIC: > 128 µg/mL
Staphylococcus aureus [6]
  MIC: 64 µg/mL (≈ 108 µM)
Acinetobacter lwoffii [7]; AI.88-483, 24 h
  MIC: > 128 µg/mL
Pseudomonas aeruginosa [8]; ATCC 27853, 24 h
  MIC: > 128 µg/mL
Pseudomonas aeruginosa [9]; F03, 24 h
  MIC: > 128 µg/mL
Pseudomonas aeruginosa [10]; PT629, 24 h
  MIC: > 128 µg/mL
Klebsiella pneumoniae; ATCC 700603, 24 h
  MIC: > 128 µg/mL
Escherichia coli [11]; PAZ505H8101, 24 h
  MIC: > 128 µg/mL
Escherichia coli [12]; L58058.1, 24 h
  MIC: > 128 µg/mL
Pseudomonas aeruginosa [13]; PAO1, 24 h
  MIC: > 128 µg/mL
Pseudomonas aeruginosa [14]; PA01, 24 h
  MIC: > 128 µg/mL
Pseudomonas aeruginosa [15]; PA03, 24 h
  MIC: > 128 µg/mL
Pseudomonas aeruginosa [16]; PA21, 24 h
  MIC: > 128 µg/mL
Pseudomonas aeruginosa [17]; PA22, 24 h
  MIC: > 128 µg/mL
Pseudomonas aeruginosa [18]; PA405, 24 h
  MIC: 64 µg/mL (≈ 108 µM)
Pseudomonas aeruginosa [19]; PA406, 24 h
  MIC: 64 µg/mL (≈ 108 µM)
Staphylococcus aureus [20]
  MIC: > 128 µg/mL
Staphylococcus aureus [21]
  MIC: > 128 µg/mL
Acinetobacter lwoffii [22]
  MIC: 128 µg/mL (≈ 216 µM)
Escherichia coli [23]
  MIC: > 128 µg/mL

## NC[C@H]1O[C@H](O[C@H]2[C@H](O)[C@@H](OCc3ccccc3)[C@H](N)C[C@@H]2N)[C@H](N)[C@@H](OCc2ccccc2)[C@@H]1O
Staphylococcus aureus [1]
  MIC: > 128 µg/mL
Staphylococcus aureus [2]
  MIC: > 128 µg/mL
Staphylococcus aureus [3]
  MIC: > 128 µg/mL
Staphylococcus aureus [4]
  MIC: > 128 µg/mL
Staphylococcus aureus [20]
  MIC: > 128 µg/mL
Staphylococcus aureus [21]
  MIC: > 128 µg/mL

## GENTAMICIN
Acinetobacter lwoffii [7]
  MIC: 4 µg/mL
Pseudomonas aeruginosa [8]
  MIC: 1 µg/mL
Pseudomonas aeruginosa [9]
  MIC: > 28 µg/mL
Pseudomonas aeruginosa [10]
  MIC: 4 µg/mL
Klebsiella pneumoniae
  MIC: 8 µg/mL
Escherichia coli [11]
  MIC: 1 µg/mL
Escherichia coli [12]
  MIC: 64 µg/mL
Pseudomonas aeruginosa [13]
  MIC: 2 µg/mL
Pseudomonas aeruginosa [14]
  MIC: 1 µg/mL
Pseudomonas aeruginosa [15]
  MIC: 1 µg/mL
Pseudomonas aeruginosa [16]
  MIC: 1 µg/mL
Pseudomonas aeruginosa [17]
  MIC: 4 µg/mL
Pseudomonas aeruginosa [18]
  MIC: < 0.125 µg/mL
Pseudomonas aeruginosa [19]
  MIC: < 0.125 µg/mL
Citrobacter amalonaticus
  MIC: > 128 µg/mL
Escherichia coli [24]
  MIC: > 128 µg/mL
Klebsiella aerogenes
  MIC: > 128 µg/mL

## NC[C@H]1O[C@H](O[C@H]2[C@H](O)[C@@H](OCc3ccccn3)[C@H](N)C[C@@H]2N)[C@H](N)[C@@H](OCc2ccccn2)[C@@H]1O
Staphylococcus aureus [1]
  MIC: > 128 µg/mL
Staphylococcus aureus [2]
  MIC: > 128 µg/mL
Staphylococcus aureus [3]
  MIC: > 128 µg/mL
Staphylococcus aureus [4]
  MIC: > 128 µg/mL
Staphylococcus aureus [20]
  MIC: > 128 µg/mL
Staphylococcus aureus [21]
  MIC: > 128 µg/mL

## NC[C@H]1O[C@H](O[C@H]2[C@H](OCc3ccc4ccccc4c3)[C@@H](O)[C@H](N)C[C@@H]2N)[C@H](N)[C@@H](O)[C@@H]1OCc1ccc2ccccc2c1
Staphylococcus aureus [1]
  MIC: 128 µg/mL (≈ 212 µM)
Staphylococcus aureus [2]
  MIC: 128 µg/mL (≈ 212 µM)
Staphylococcus aureus [3]
  MIC: 32 µg/mL (≈ 53.1 µM)
Staphylococcus aureus [4]
  MIC: 128 µg/mL (≈ 212 µM)
Staphylococcus aureus [5]
  MIC: 64 µg/mL (≈ 106 µM)
Staphylococcus aureus [6]
  MIC: 64 µg/mL (≈ 106 µM)
Acinetobacter lwoffii [7]; AI.88-483, 24 h
  MIC: > 128 µg/mL
Pseudomonas aeruginosa [8]; ATCC 27853, 24 h
  MIC: 128 µg/mL (≈ 212 µM)
Pseudomonas aeruginosa [9]; F03, 24 h
  MIC: > 128 µg/mL
Pseudomonas aeruginosa [10]; PT629, 24 h
  MIC: > 128 µg/mL
Klebsiella pneumoniae; ATCC 700603, 24 h
  MIC: > 128 µg/mL
Escherichia coli [11]; PAZ505H8101, 24 h
  MIC: 128 µg/mL (≈ 212 µM)
Escherichia coli [12]; L58058.1, 24 h
  MIC: 128 µg/mL (≈ 212 µM)
Pseudomonas aeruginosa [13]; PAO1, 24 h
  MIC: > 128 µg/mL
Pseudomonas aeruginosa [14]; PA01, 24 h
  MIC: > 128 µg/mL
Pseudomonas aeruginosa [15]; PA03, 24 h
  MIC: > 128 µg/mL
Pseudomonas aeruginosa [16]; PA21, 24 h
  MIC: > 128 µg/mL
Pseudomonas aeruginosa [17]; PA22, 24 h
  MIC: > 128 µg/mL
Pseudomonas aeruginosa [18]; PA405, 24 h
  MIC: 16 µg/mL (≈ 26.5 µM)
Pseudomonas aeruginosa [19]; PA406, 24 h
  MIC: 16 µg/mL (≈ 26.5 µM)
Staphylococcus aureus [20]
  MIC: 64 µg/mL (≈ 106 µM)
Staphylococcus aureus [21]
  MIC: 128 µg/mL (≈ 212 µM)
Acinetobacter lwoffii [22]
  MIC: 32 µg/mL (≈ 53.1 µM)
Escherichia coli [23]
  MIC: 128 µg/mL (≈ 212 µM)

## NC[C@H]1O[C@H](O[C@H]2[C@H](O)[C@@H](O)[C@H](N)C[C@@H]2N)[C@H](N)[C@@H](O)[C@@H]1O [NEAMINE]
Staphylococcus aureus [1]
  MIC: 16 µg/mL (≈ 49.6 µM)
Staphylococcus aureus [2]
  MIC: 16 µg/mL (≈ 49.6 µM)
Staphylococcus aureus [3]
  MIC: > 128 µg/mL
Staphylococcus aureus [4]
  MIC: > 128 µg/mL
Staphylococcus aureus [5]
  MIC: > 128 µg/mL
Staphylococcus aureus [6]
  MIC: > 128 µg/mL
Acinetobacter lwoffii [7]; AI.88-483, 24 h
  MIC: > 128 µg/mL
Pseudomonas aeruginosa [8]; ATCC 27853, 24 h
  MIC: > 128 µg/mL
Pseudomonas aeruginosa [9]; F03, 24 h
  MIC: > 128 µg/mL
Pseudomonas aeruginosa [10]; PT629, 24 h
  MIC: > 128 µg/mL
Klebsiella pneumoniae; ATCC 700603, 24 h
  MIC: 32 µg/mL (≈ 99.3 µM)
Escherichia coli [11]; PAZ505H8101, 24 h
  MIC: > 128 µg/mL
Escherichia coli [12]; L58058.1, 24 h
  MIC: 32 µg/mL (≈ 99.3 µM)
Pseudomonas aeruginosa [13]; PAO1, 24 h
  MIC: > 128 µg/mL
Pseudomonas aeruginosa [14]; PA01, 24 h
  MIC: > 128 µg/mL
Pseudomonas aeruginosa [15]; PA03, 24 h
  MIC: > 128 µg/mL
Pseudomonas aeruginosa [16]; PA21, 24 h
  MIC: > 128 µg/mL
Pseudomonas aeruginosa [17]; PA22, 24 h
  MIC: > 128 µg/mL
Pseudomonas aeruginosa [18]; PA405, 24 h
  MIC: 128 µg/mL (≈ 397 µM)
Pseudomonas aeruginosa [19]; PA406, 24 h
  MIC: 128 µg/mL (≈ 397 µM)
Staphylococcus aureus [20]
  MIC: 32 µg/mL (≈ 99.3 µM)
Staphylococcus aureus [21]
  MIC: 32 µg/mL (≈ 99.3 µM)
Acinetobacter lwoffii [22]
  MIC: 2 µg/mL (≈ 6.2 µM)
Escherichia coli [23]
  MIC: 32 µg/mL (≈ 99.3 µM)

## NC[C@H]1O[C@H](O[C@H]2[C@H](O)[C@@H](OCc3ccccn3)[C@H](N)C[C@@H]2N)[C@H](N)[C@@H](OCc2ccccn2)[C@@H]1OCc1ccccn1
Staphylococcus aureus [1]
  MIC: > 128 µg/mL
Staphylococcus aureus [2]
  MIC: > 128 µg/mL
Staphylococcus aureus [3]
  MIC: > 128 µg/mL
Staphylococcus aureus [4]
  MIC: > 128 µg/mL
Staphylococcus aureus [20]
  MIC: > 128 µg/mL
Staphylococcus aureus [21]
  MIC: > 128 µg/mL

## NC[C@H]1O[C@H](O[C@H]2[C@H](OCc3ccc4ccccc4c3)[C@@H](O)[C@H](N)C[C@@H]2N)[C@H](N)[C@@H](O)[C@@H]1O
Staphylococcus aureus [1]
  MIC: > 128 µg/mL
Staphylococcus aureus [2]
  MIC: > 128 µg/mL
Staphylococcus aureus [3]
  MIC: > 128 µg/mL
Staphylococcus aureus [4]
  MIC: > 128 µg/mL
Staphylococcus aureus [20]
  MIC: > 128 µg/mL
Staphylococcus aureus [21]
  MIC: > 128 µg/mL
